From PubChem BioAssay AID1259407 (Chemical Carcinogenesis Research Information System (CCRIS), 2018) come the findings set out here.

Structures are written as SMILES. Active and inactive are the calls of the source. The rule behind the calls is not given here.

In the data set the test system is CCRIS mutagenicity, Ames/micronucleus/aberration tests. Put plainly: CCRIS mutagenicity studies.
Where [1] appears, read: Test System: AMES SALMONELLA TYPHIMURIUM, Strain/Indicator: TA98, Metabolic Activation: NONE, Method: STANDARD PLATE.
The mark [2] stands for this setting: Test System: AMES SALMONELLA TYPHIMURIUM, Strain/Indicator: TA98, Metabolic Activation: RAT, LIVER, S-9, AROCLOR 1254, Method: STANDARD PLATE.
[3] abbreviates: Test System: AMES SALMONELLA TYPHIMURIUM, Strain/Indicator: TA100, Metabolic Activation: NONE, Method: STANDARD PLATE.
Where [4] appears, read: Test System: AMES SALMONELLA TYPHIMURIUM, Strain/Indicator: TA100, Metabolic Activation: RAT, LIVER, S-9, AROCLOR 1254, Method: STANDARD PLATE.

With `COc1cccc2c1cc([N+](=O)[O-])c1c(C(=O)O)cc3c(c12)OCO3`, the mutagenic call (End Point: IN VITRO CHROMOSOMAL ABERRATIONS, Test System: CHO (WBL) CELLS, Metabolic Activation: NONE) is “active; positive”; the mutagenic call (End Point: IN VITRO CHROMOSOMAL ABERRATIONS, Test System: CHO (WBL) CELLS, Metabolic Activation: RAT, LIVER, S-9, AROCLOR 1254) was “active; positive”; the mutagenic call (End Point: IN VITRO CHROMOSOMAL ABERRATIONS, Test System: CHO CELLS, Metabolic Activation: NONE) is “active; positive”; the mutagenic call (End Point: IN VITRO CHROMOSOMAL ABERRATIONS, Test System: CHO CELLS, Metabolic Activation: S-9) is “active; positive”; the mutagenic call (End Point: IN VITRO MICRONUCLEUS, Test System: CHO (WBL) CELLS, Metabolic Activation: RAT, LIVER, S-9, AROCLOR 1254) is “active; positive”; the mutagenic call (End Point: IN VITRO MICRONUCLEUS, Test System: CHO CELLS, Metabolic Activation: S-9) was “active; positive”. Besides, the mutagenic call (End Point: In vitro micronucleus, Test System: Human hepatoma (HepG2) cells, Metabolic Activation: None) is “active; positive”; the mutagenic call (Test System: AMES SALMONELLA TYPHIMURIUM, Strain/Indicator: D3052, Metabolic Activation: NONE, Method: STANDARD PLATE) is “inactive; negative”; the mutagenic call (Test System: AMES SALMONELLA TYPHIMURIUM, Strain/Indicator: D3052, Metabolic Activation: RAT, LIVER, S-9, PHENOBARBITAL, Method: STANDARD PLATE) was “inactive; negative”; the mutagenic call (Test System: AMES SALMONELLA TYPHIMURIUM, Strain/Indicator: G46, Metabolic Activation: NONE, Method: STANDARD PLATE) is “inactive; negative”; the mutagenic call (Test System: AMES SALMONELLA TYPHIMURIUM, Strain/Indicator: G46, Metabolic Activation: RAT, LIVER, S-9, PHENOBARBITAL, Method: STANDARD PLATE) is “inactive; negative”; the mutagenic call (Test System: AMES SALMONELLA TYPHIMURIUM, Strain/Indicator: TA98(NR), Metabolic Activation: NONE, Method: STANDARD PLATE) was “inactive; negative”. The mutagenic call was “inactive; negative” (Test System: AMES SALMONELLA TYPHIMURIUM, Strain/Indicator: TA98, Metabolic Activation: NONE); “inactive; negative” under setting [1]; “active; positive” under setting [2]; “inactive; negative” (Test System: AMES SALMONELLA TYPHIMURIUM, Strain/Indicator: TA98, Metabolic Activation: RAT, LIVER, S-9, CLOPHEN A50); “active; positive” (Test System: AMES SALMONELLA TYPHIMURIUM, Strain/Indicator: TA98, Metabolic Activation: RAT, LIVER, S-9, PHENOBARBITAL, Method: STANDARD PLATE); “inactive; negative” (Test System: AMES SALMONELLA TYPHIMURIUM, Strain/Indicator: TA100(NR), Metabolic Activation: NONE, Method: STANDARD PLATE). The mutagenic call was “inactive; negative” (Test System: AMES SALMONELLA TYPHIMURIUM, Strain/Indicator: TA100(NR), Metabolic Activation: S-9, Method: STANDARD PLATE); “active; positive” (Test System: AMES SALMONELLA TYPHIMURIUM, Strain/Indicator: TA100, Metabolic Activation: NONE); “inactive; negative” under setting [3]; “active; positive” under setting [4]; “active; positive” (Test System: AMES SALMONELLA TYPHIMURIUM, Strain/Indicator: TA100, Metabolic Activation: RAT, LIVER, S-9, CLOPHEN A50); “active; positive” (Test System: AMES SALMONELLA TYPHIMURIUM, Strain/Indicator: TA100, Metabolic Activation: RAT, LIVER, S-9, PHENOBARBITAL, Method: STANDARD PLATE). Also, the mutagenic call runs as follows: (Test System: AMES SALMONELLA TYPHIMURIUM, Strain/Indicator: TA100, Metabolic Activation: S-9, Method: STANDARD PLATE) “active; positive”; (Test System: AMES SALMONELLA TYPHIMURIUM, Strain/Indicator: TA102, Metabolic Activation: NONE, Method: STANDARD PLATE) “active; positive”; (Test System: AMES SALMONELLA TYPHIMURIUM, Strain/Indicator: TA1535, Metabolic Activation: NONE) “inactive; negative”; (Test System: AMES SALMONELLA TYPHIMURIUM, Strain/Indicator: TA1535, Metabolic Activation: NONE, Method: STANDARD PLATE) “active; positive”; (Test System: AMES SALMONELLA TYPHIMURIUM, Strain/Indicator: TA1535, Metabolic Activation: RAT, LIVER, S-9, CLOPHEN A50) “inactive; negative”; (Test System: AMES SALMONELLA TYPHIMURIUM, Strain/Indicator: TA1535, Metabolic Activation: RAT, LIVER, S-9, PHENOBARBITAL, Method: STANDARD PLATE) “active; positive”. Further, the mutagenic call (Test System: AMES SALMONELLA TYPHIMURIUM, Strain/Indicator: TA1537, Metabolic Activation: NONE) was “active; positive”; the mutagenic call (Test System: AMES SALMONELLA TYPHIMURIUM, Strain/Indicator: TA1537, Metabolic Activation: NONE, Method: STANDARD PLATE) was “active; positive”; the mutagenic call (Test System: AMES SALMONELLA TYPHIMURIUM, Strain/Indicator: TA1537, Metabolic Activation: RAT, LIVER, S-9, CLOPHEN A50) is “active; positive”; the mutagenic call (Test System: AMES SALMONELLA TYPHIMURIUM, Strain/Indicator: TA1537, Metabolic Activation: S-9, Method: STANDARD PLATE) is “active; positive”; the mutagenic call (Test System: AMES SALMONELLA TYPHIMURIUM, Strain/Indicator: TA1538, Metabolic Activation: NONE) is “inactive; negative”; the mutagenic call (Test System: AMES SALMONELLA TYPHIMURIUM, Strain/Indicator: TA1538, Metabolic Activation: RAT, LIVER, S-9, CLOPHEN A50) was “inactive; negative”. In addition, the mutagenic call by setting is: (Test System: AMES SALMONELLA TYPHIMURIUM, Strain/Indicator: TA1978, Metabolic Activation: NONE, Method: STANDARD PLATE) “inactive; negative”; (Test System: AMES SALMONELLA TYPHIMURIUM, Strain/Indicator: TA1978, Metabolic Activation: RAT, LIVER, S-9, PHENOBARBITAL, Method: STANDARD PLATE) “inactive; negative”; (Test System: AMES SALMONELLA TYPHIMURIUM, Strain/Indicator: TM677/8-AZAGUANINE, Metabolic Activation: NONE, Method: SUSPENSION/PLATE) “active; positive”; (Test System: AMES SALMONELLA TYPHIMURIUM, Strain/Indicator: YG1020, Metabolic Activation: NONE, Method: STANDARD PLATE) “active; positive”; (Test System: AMES SALMONELLA TYPHIMURIUM, Strain/Indicator: YG1021, Metabolic Activation: NONE, Method: STANDARD PLATE) “inactive; negative”; (Test System: AMES SALMONELLA TYPHIMURIUM, Strain/Indicator: YG1024, Metabolic Activation: NONE, Method: STANDARD PLATE) “active; positive”. The mutagenic call reads like this: (Test System: AMES SALMONELLA TYPHIMURIUM, Strain/Indicator: YG1025, Metabolic Activation: NONE, Method: STANDARD PLATE) “active; positive”; (Test System: AMES SALMONELLA TYPHIMURIUM, Strain/Indicator: YG1029, Metabolic Activation: NONE, Method: STANDARD PLATE) “active; positive”; (Test System: CHINESE HAMSTER OVARY, Strain/Indicator: CHO-K1-BH4 (HGPRT), Metabolic Activation: NONE) “active; positive”; (Test System: MOUSE LYMPHOMA, Strain/Indicator: L5178Y TK+/TK-, Metabolic Activation: NONE) “active; positive”; (Test System: MOUSE LYMPHOMA, Strain/Indicator: L5178Y TK+/TK-, Metabolic Activation: RAT, LIVER, S-9, AROCLOR 1254) “active; positive”.
`c1ccc2c(c1)ccc1cc3ccc4ccncc4c3cc12`: the mutagenic call was “inactive; negative” under setting [1]; “active; positive” (Test System: AMES SALMONELLA TYPHIMURIUM, Strain/Indicator: TA98, Metabolic Activation: RAT, LIVER, S-9, AROCLOR 1254 (10%), Method: STANDARD PLATE); “active; positive” under setting [2]; “inactive; negative” under setting [3]; “active; positive” (Test System: AMES SALMONELLA TYPHIMURIUM, Strain/Indicator: TA100, Metabolic Activation: RAT, LIVER, S-9, AROCLOR 1254 (10%), Method: STANDARD PLATE); “active; positive” under setting [4].
On to `O=S(=O)(O)c1ccc2ccc3cccc4ccc1c2c34`, for which the mutagenic call is “inactive; negative” under setting [2] and “active; positive” under setting [4].
